{"source": "patent US20230390248A1", "about": "“COMPOSITION FOR ENHANCING TUMOR PENETRATION OF ANTICANCER DRUG, COMPRISING LOSARTAN AS ACTIVE INGREDIENT, AND USE THEREOF” (priority 2020, published 2023)", "format_in_all_cases": "in vivo, BALB/c nude mice", "key": {"collagen": {"tested_on": "collagen", "assay": "Masson trichrome staining of collagen in gastric cancer tissue", "conditions": "gastric cancer tumor tissue; versus control; FIG. 3A", "protocol": "Masson trichrome staining was performed for histological visualization of collagen, an extracellular component, which is considered as a disorder when TRZ travels. Tumor tissues were obtained by sacrificing animals. The obtained tissues were fixed overnight in 4% paraformaldehyde and transferred to OCT compounds (Sakura Finetec, USA). The tissues were sectioned to a thickness of 40 μm. Staining was performed according to the kit protocol (Abcam (www.abcam.com) ab150686).\nBouin's Fluid was applied to each section and cultured overnight at room temperature. The slides were washed with water, cultured in Weigert's iron hematoxylin for 5 minutes, then washed with tap water, and cultured in Biebrich scarlet/acid fuchsin solution for […]. Without washing, the slides were re-cultured with aniline blue for 30 minutes. The slides were then washed with water and cultured in acetic acid for 3-5 minutes.\nIt was also dehydrated in graded alcohol, washed in xylene, and then mounted to a class slide using a mounting medium. The slides were visualized, and images were filmed with the Olympus BX53 system microscope (Olympus, life science solution, Waltham, Massachusetts (02453))."}, "hyaluronan": {"tested_on": "hyaluronan", "assay": "Hyaluronan staining (alcian blue) in gastric cancer tissue", "conditions": "gastric cancer tumor tissue; versus control; FIG. 3B", "description": "Hyaluronan staining was performed using alcian blue stain kit (Vector laboratories, Burlingame, CA 94010, Alcian Blue (pH 2.5), Stain kit, H-3501). The tissues were sectioned to a thickness of 20 μm. The sections were washed with water to remove excess OCT. Acetic acid was treated to tissue sections for 3 minutes, and then Alcian blue solution was treated at 37° C. for 30 minutes. Excess staining was removed by washing with acetic acid. It was then washed with tap water for 2 minutes and then with distilled water for 1-2 minutes. In addition, the nuclear fast red solution was treated for 5 minutes, and washing was followed with tap water and then with distilled water. The slides were dehydrated in graded alcohol and removed from xylene, and then a cover slip was mounted. The slides were visualized, and images were filmed with Olympus BX53 system microscope (Olympus, life science solution, Waltham, Massachusetts (02453))."}, "gastric cancer (NCI-N87)": {"tested_on": "gastric cancer (NCI-N87)", "assay": "Treatment efficacy of combined RIT using losartan and ^64Cu-TRZ", "conditions": "compared to the control (PBS); losartan 60 mg/kg s.c. for 25 days; FIG. 5A", "protocol": "To identify gastric cancer (NCI-N87) treatment efficacy of the combined therapy using losartan and trastuzumab, the groups were classified into ^64Cu-TRZ treated group (n=7), losartan-included ^64Cu-TRZ treated group (n=7), losartan solely treated group (n=6), TRZ solely treated group (n=6), and PBS treated group (n=8). […] Losartan was delivered subcutaneously (60 mg/kg for 25 days), and TRZ (150 μg) was injected intravenously once at the start of treatment."}}}
{"molecule": "CCCCc1nc(Cl)c(CO)n1Cc1ccc(-c2ccccc2-c2nn[nH]n2)cc1", "note": "[losartan]", "values": [{"measurement": "collagen (masson trichrome staining)", "setting": "collagen", "value": "reduced collagen"}, {"measurement": "hyaluronan (alcian blue staining)", "setting": "hyaluronan", "value": "reduced hyaluronan"}, {"measurement": "tumor growth response", "setting": "gastric cancer (NCI-N87)", "value": "tumoricidal response"}]}
